The source of these data is ChEMBL document CHEMBL1139848, “Structure-guided optimization of estrogen receptor binding affinity and antagonist potency of pyrazolopyrimidines with basic side chains” (J Med Chem, 2007).

Assay [1] deals with T1, Estrogen receptor (Homo sapiens, UniProt P03372).
T1 sequence (P03372 whole entry): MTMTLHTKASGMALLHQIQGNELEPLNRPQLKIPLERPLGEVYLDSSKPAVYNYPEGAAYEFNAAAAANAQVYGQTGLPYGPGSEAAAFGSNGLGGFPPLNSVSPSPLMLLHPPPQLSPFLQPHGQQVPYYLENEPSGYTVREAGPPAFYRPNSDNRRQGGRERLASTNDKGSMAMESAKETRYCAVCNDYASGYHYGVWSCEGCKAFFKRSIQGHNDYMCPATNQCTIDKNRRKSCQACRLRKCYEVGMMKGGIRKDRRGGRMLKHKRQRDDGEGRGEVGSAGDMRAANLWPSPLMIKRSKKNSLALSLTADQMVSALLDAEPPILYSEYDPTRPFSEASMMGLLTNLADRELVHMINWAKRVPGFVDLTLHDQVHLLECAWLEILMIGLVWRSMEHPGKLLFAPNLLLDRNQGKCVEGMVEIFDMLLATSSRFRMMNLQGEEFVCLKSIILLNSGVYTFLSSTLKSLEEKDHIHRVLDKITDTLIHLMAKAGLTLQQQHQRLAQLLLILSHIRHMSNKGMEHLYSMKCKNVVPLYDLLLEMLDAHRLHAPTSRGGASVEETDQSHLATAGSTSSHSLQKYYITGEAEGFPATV
Description: Binding affinity to ERalpha.

In assay [2] the target is T2, Estrogen receptor beta (Homo sapiens, UniProt Q92731). The experiment in a line: Binding affinity to ERbeta.
T2 sequence (Q92731 whole entry): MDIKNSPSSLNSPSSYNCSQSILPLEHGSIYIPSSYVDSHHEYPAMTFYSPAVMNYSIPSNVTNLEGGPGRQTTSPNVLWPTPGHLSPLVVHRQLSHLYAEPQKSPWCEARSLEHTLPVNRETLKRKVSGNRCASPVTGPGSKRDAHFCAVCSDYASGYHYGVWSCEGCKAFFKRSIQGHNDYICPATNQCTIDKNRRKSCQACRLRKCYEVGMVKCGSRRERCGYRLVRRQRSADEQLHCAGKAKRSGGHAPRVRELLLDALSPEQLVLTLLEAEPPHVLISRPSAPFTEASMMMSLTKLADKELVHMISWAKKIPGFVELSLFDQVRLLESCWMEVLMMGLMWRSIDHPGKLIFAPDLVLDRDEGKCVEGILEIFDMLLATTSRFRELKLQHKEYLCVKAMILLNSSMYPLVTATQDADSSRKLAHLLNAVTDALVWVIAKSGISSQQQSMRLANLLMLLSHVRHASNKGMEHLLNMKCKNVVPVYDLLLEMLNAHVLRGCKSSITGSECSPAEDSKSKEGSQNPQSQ
For assay [3], the target named is T1, Estrogen receptor. The experiment in a line: Antagonist potency at ERalpha expressed in human HEC1 cells by luciferase reporter gene assay. The assay is classed as functional, cell-based, HEC-1. A general note: In a reporter assay the amount or activity of a reporter protein is the signal.
Assay [4] concerns the target T2, Estrogen receptor beta. Description: Antagonist potency at ERbeta expressed in human HEC1 cells by luciferase reporter gene assay. The assay is classed as functional, cell-based, HEC-1.

As a reminder, the Ki is the equilibrium dissociation constant of an inhibitor or competing ligand from its target. Read a high Ki as lower affinity. Take `Oc1ccc(-c2nn3cc(O)cnc3c2-c2ccc(O)cc2)cc1`: the Ki on Estrogen receptor [1] was determined as 3.33 µM; on Estrogen receptor beta [2], 1.52 µM.

With `Oc1ccc(-c2nn3c(C(F)(F)F)cc(C(F)(F)F)nc3c2-c2ccccc2)cc1`, the Ki at Estrogen receptor [1] is 0.051 µM; at Estrogen receptor beta [2], 0.122 µM.

For the compound `Oc1ccc(-c2c(-c3ccccc3)nn3c(C(F)(F)F)cc(C(F)(F)F)nc23)cc1`, the inhibition constant (Ki) came out at 2.22 µM at Estrogen receptor [1] and 0.139 µM at Estrogen receptor beta [2].

By IC50 is commonly meant the point on the concentration scale where inhibition reaches its midpoint. Read a high IC50 as weaker potency in that assay. Regarding `Oc1ccc(-c2nn3c(C(F)(F)F)cc(C(F)(F)F)nc3c2-c2ccc(OCCN3CCCCC3)cc2)cc1`, the Ki was determined as 0.007 µM on Estrogen receptor [1] and 0.071 µM on Estrogen receptor beta [2]. The IC50 at Estrogen receptor [3] is 0.09 µM; against Estrogen receptor beta [4], 0.04 µM.

As for `CN(C)CCOc1ccc(-c2c(-c3ccc(O)cc3)nn3c(C(F)(F)F)cc(C(F)(F)F)nc23)cc1`, the Ki is 0.047 µM on Estrogen receptor [1] and 0.178 µM on Estrogen receptor beta [2]. In addition, the figures for the IC50 against Estrogen receptor [3] and on Estrogen receptor beta [4] were 1 µM and 0.25 µM, respectively.

Take `CN(C)CCOc1ccc(-c2nn3c(C(F)(F)F)cc(C(F)(F)F)nc3c2-c2ccc(O)cc2)cc1`: the Ki on Estrogen receptor [1] was determined as 0.408 µM; at Estrogen receptor beta [2] it was 0.156 µM.

Regarding `Oc1ccc(-c2c(-c3ccc(OCCN4CCCCC4)cc3)nn3c(C(F)(F)F)cc(C(F)(F)F)nc23)cc1`, the figures for the Ki at Estrogen receptor [1] and at Estrogen receptor beta [2] were 0.266 µM and 0.192 µM, respectively.

As to `Oc1ccc(-c2nn3c(C(F)(F)F)cc(C(F)(F)F)nc3c2-c2ccc(O)cc2)cc1`, the Ki on Estrogen receptor [1] turned out to be 0.026 µM; on Estrogen receptor beta [2], 0.048 µM. Besides, the figures for the half-maximal inhibitory concentration (IC50) on Estrogen receptor [3] and against Estrogen receptor beta [4] were 6 µM and 0.6 µM, respectively.
